Results reported in patent publication US20260174769A1, “MACROCYCLIC COMPOUNDS AND METHODS OF USE” (AMGEN INC., priority 2022, published 2026).
Where a name gives a salt, the structure may show the parent alone. Read-outs that look alike come from different tables or passages of the source.

Legend:
[1] = system: Phosphorylation of ERK1/2 in AsPC-1 cells; experiment: Phospho-ERK1/2 MSD Assay; type: cell-based, human; conditions: read-out: 2 h p-ERK (AsPC-1 cells), IC50
Method: Sixteen hours prior to compound treatment, AsPC-1 cells were seeded in 96-well cell culture plates at a density of 25,000 cells/well and incubated at 37° C., 5% CO2. A compound dose-response titration was diluted in growth media, added to appropriate wells of a cell culture plate, and then incubated at 37° C., 5% CO2 for 2 hours. […] Phosphorylation of ERK1/2 in compound-treated lysates was assayed using Phospho-ERK 1/2 Whole Cell Lysate kits (Meso Scale Discovery K151DWD) according to the manufacturer's protocol. Assay plates were read on a Meso Scale Discovery Sector Imager 6000, and data were analyzed using a 4-parameter logistic model to calculate IC50 values.

[2] = target: GDP-bound KRAS protein (aa 1-169), containing both G12D and C118A amino acid substitutions (Homo sapiens, UniProt P01116, C118A/G12D); experiment: KRAS G12D Coupled Nucleotide Exchange Assay; type: biochemical
Method: KRAS G12D Coupled Nucleotide Exchange Assay
The assay plates were then read on a PerkinElmer En Vision Multilabel Reader, using AlphaScreen® technology, and data were analyzed using a 4-parameter logistic model to calculate IC50 values.

[3] = target: His-tagged KRAS G12D protein (Homo sapiens, UniProt P01116, G12D); experiment: KRAS G12D TR-FRET Assay; type: binding
Method: The His-tagged KRAS G12D protein (Amgen) was diluted to 20 nM in Assay Buffer (20 mM HEPES, pH 7.4, 10 mM MgCl2, 50 mM NaCl, 0.1% BSA, 0.01% Tween-20, 10 μM GDP) and 2 μL was added to the appropriate wells of the 384-well plate. The plate was incubated for 30 minutes at room temperature. Biotinylated KRPep-2d substrate (Amgen) was diluted to 20 nM in Assay Buffer and 2 μL was added to all wells and incubated for 1 hour at room temperature. Detection Reagent (0.4 nM LANCE Eu-W1024 Anti-6×His (Perkin Elmer AD0401), 5 nM streptavidin-d2 (Cisbio 610SADLA)) was prepared in Assay Buffer, then 4 μL was added to the plate and incubated for 1 hour at room temperature.

[4] = Homo sapiens, ASPC1, 2 h, AsPC-1 cells, 2 h compound treatment
[5] = 2 hours compound pre-incubation, SOS-mediated nucleotide exchange
[6] = read-out: KRAS G12D Binding IC50
[7] = TR-FRET, read-out: KRAS G12D Binding IC50

IC50 [2, 5]	IC50 ([3]; TR-FRET binding)	Compound	also measured
19 nM	55 nM	O=C1CCCc2c(Cl)cc3[nH]ncc3c2-c2ncc3c(nc(OC[C@@]45CCCN4C[C@H](F)C5)nc3c2F)N2CCCC(CC1)C2 (mixture of isomers) [Example 236]	IC50 [1, 4]: 950 nM
		Cc1cc2[nH]ncc2c2c1CCCCC(=O)O[C@@H]1CCCN(C1)c1nc(OC[C@@]34CCCN3C[C@H](F)C4)nc3c(F)c-2ncc13 [Example 31, (17R)-30-Fluoro-24-(((2R,7aS)-2-fluorotetrahydro-1H-pyrrolo[1,2-a]pyrrol-7a(5H)-yl)methoxy)-9-methyl-16-oxa-5,6,21,23,25,29-hexaazahexacyclo[24.3.1.1˜17,21˜.0˜2,10˜.0˜3,7˜.0˜22,27˜]hentriaconta-1(30),2,4,7,9,22,24,26,28-nonaen-15-one bis(2,2,2-trifluoroacetate)]	IC50 [2]: 5 nM; IC50 [3, 6]: 7 nM
127 nM	314 nM	O=C1OCCc2c(Cl)cc3[nH]ncc3c2-c2ncc3c(nc(OC[C@@]45CCCN4C[C@H](F)C5)nc3c2F)N2CCC[C@]3(C2)C[C@H](C3)O1 [Example 333, (1R,3S)-10-chloro-32-fluoro-24-(((2R,7aS)-2-fluorotetrahydro-1H-pyrrolo[1,2-a]pyrrol-7a(5H)-yl)methoxy)-4,6-dioxa-13,14,19,23,25,27-hexaazaheptacyclo[25.3.1.1~1,3~.1~18,22~.0~9,17~.0~12,16~.0~21,26~]tritriaconta-9,11,14,16,18(32),19,21,23,25-nonaen-5-one]	
		O=C1OCCCc2c(Cl)cc3[nH]ncc3c2-c2ncc3c(nc(OC[C@@]45CCCN4C[C@H](F)C5)nc3c2F)N2CCCC[C@@](CF)(C2)O1 [Example 339, (26S)-18-chloro-32-fluoro-26-(fluoromethyl)-4-(((2R,7aS)-2-fluorotetrahyrdo-1H-pyrrolo[1,2-a]pyrrol-7a(5H)-yl)methoxy)-23,25-dioxa-1,3,5,9,14,15-hexaazahexacyclo[24.4.1.1~6,10~.0~2,7~.0~11,19~.0~12,16~]dotriaconta-2,4,6,8,10(32),11,13,16,18-nonaen-24-one]	IC50 ([1]; AsPC-1 cells, 2 h compound treatment): 826 nM
	2 nM	CN(C)CC1(COc2nc3c4cnc(c(F)c4n2)-c2c(c(Cl)cc4[nH]ncc24)CCOC(=O)O[C@H]2C[C@]4(CCCN3C4)C2)CC1 [Example 334, (1S,3R)-10-chloro-24-((1-((dimethylamino)methyl)cyclopropyl)methoxy)-32-fluoro-4,6-dioxa-13,14,19,23,25,27-hexaazaheptacyclo[25.3.1.1~1,3~.1~18,22~.0~9,17~.0~12,16~.0~21,26~]tritriaconta-9,11,14,16,18(32),19,21,23,25-nonaen-5-one]	IC50 [1, 4]: 8 nM
5630 nM	20200 nM	CC12COCCN(C1)c1nc(OC[C@@]34CCCN3C[C@H](F)C4)nc3cc(nnc13)-c1c(c(Cl)cc3[nH]ncc13)CCCOC(=O)O2 (single isomer, unassigned) [Example 363]	
		(185)-9-chloro-31-fluoro-25-(((2R,7a.S)-2-fluorotetrahydro-LH-pyrrolo[1,2-α]pyrrol-7a(5H)-yl)methoxy)-15-oxa-5,6,22,24,26,30,33-heptaazaheptacyclo[25.3.1.1~13,16~1~18,22~0~2,10~.0~3,7~.0~23,28~]tritriaconta-1(31),2,4,7,9,13,16(33),23,25,27,29-undecaene [Example 388]	IC50 [1]: 264 nM; IC50 [2]: 5 nM; IC50 [3, 6]: 13 nM
		Cc1cc2[nH]ncc2c2c1CCCn1ncc(n1)C1CCCN(C1)c1nc(OC[C@@]34CCCN3C[C@H](F)C4)nc3c(F)c-2ncc13 (stereo partly drawn) [Example 158, 31-Fluoro-25-(((2R,7aS)-2-fluorotetrahydro-1H-pyrrolo[1,2-a]pyrrol-7a(5H)-yl)methoxy)-9-methyl-5,6,14,15,22,24,26,30,33-nonaazaheptacyclo[25.3.1.1˜14,17˜.1˜18,22˜.0˜2,10˜.0˜3,7˜.0˜23,28˜]tritriaconta-1(31),2,4,7,9,15,17(33),23,25,27,29-undecaene]	IC50 [1, 4]: 278 nM
11 nM	21 nM	O=C1OCCc2c(Cl)cc3[nH]ncc3c2-c2ncc3c(nc(OC[C@@]45CCCN4C[C@H](F)C5)nc3c2F)N2CCC[C@@]3(C[C@H](CO3)O1)C2 (single isomer, unassigned) [Example 314]	
5 nM	6 nM	O=C1OCCCc2c(Cl)cc3[nH]ncc3c2-c2ncc3c(nc(OC[C@H]4CC[C@@H]5COCCN54)nc3c2F)N2CCOC[C@H](C2)O1 [Example 185, (26S)-18-chloro-32-fluoro-4-((6R,8aR)-hexahydro-1H-pyrrolo[2,1-c][1,4]oxazin-6-ylmethoxy)-23,25,28-trioxa-1,3,5,9,14,15-hexaazahexacyclo[24.4.1.1~6,10~.0~2,7~.0~11,19~.0~12,16~]dotriaconta-2,4,6,8,10(32),11,13,16,18-nonaen-24-one]	
		O[C@@H]1C[C@H]2COCCCCc3c(Cl)cc4[nH]ncc4c3-c3ncc4c(nc(OC[C@@]56CCCN5C[C@H](F)C6)nc4c3F)N(C1)C2 (mixture of isomers) [Example 408, 2,2,2-trifluoroacetate salt]	IC50 [1]: 52.4 nM; IC50 [2]: 18 nM; IC50 [3, 6]: 24 nM
5 nM	8 nM	CC12COCCN(C1)c1nc(OC[C@@]34CCCN3C[C@H](F)C4)nc3cc(nnc13)-c1c(c(Cl)cc3[nH]ncc13)CCCOC(=O)O2 (single isomer, unassigned) [Example 362]	
2 nM	3 nM	O=C1OCCc2c(Cl)cc3[nH]ncc3c2-c2ncc3c(nc(OC[C@@]45CCCN4C[C@H](F)C5)nc3c2F)N2CCC[C@]3(C[C@@H](CO3)O1)C2 (single isomer, unassigned) [Example 315]	
2 nM	5 nM	O=C1N[C@@H]2C[C@H](O)CN(C2)c2nc(OC[C@@]34CCCN3C[C@H](F)C4)nc3c(F)c(ncc23)-c2c(c(Cl)cc3[nH]ncc23)CCCO1 (single isomer, unassigned) [Example 284]	
198 nM		(17R,18R)-9-chloro-31-fluoro-25-(((2R,7aS)-2-fluorotetrahydro-1H-pyrrolo[1,2-α]pyrrol-7a(5H)-yl)methoxy)-19,33-dioxa-5,6,15,22,24,26,30-heptaazaheptacyclo[25.3.1.1~13,16~.1~18,22~.0~2,10~.0~3,7~.0~23,28~]tritriaconta-1(31),2,4,7,9,13,15,23,25,27,29-undecaen-17-ol [Example 395]	IC50 [3, 7]: 1170 nM
376 nM	1230 nM	CN1C(=O)OCCCc2c(Cl)cc3[nH]ncc3c2-c2ncc3c(nc(OC[C@@]45CCCN4C[C@H](F)C5)nc3c2F)N2C[C@H](O)C[C@H]1C2 (single isomer, unassigned) [Example 287]	
	2440 nM	CN1CCC[C@H]1COc1nc2c3cnc(c(F)c3n1)-c1c(c(Cl)cc3[nH]ncc13)CCCOC(=O)O[C@@]1(CF)COCCN2C1 (single isomer, unassigned) [Example 337]	
	4 nM	Cc1cc2[nH]ncc2c2c1CCCC(F)C(=O)N[C@@H]1CCCCN(C1)c1nc(OC[C@@]34CCCN3C[C@H](F)C4)nc3c(F)c-2ncc13 (single isomer, unassigned) [Example 160]	
	4 nM	Fc1c2ncc3c(nc(OC[C@@]45CCCN4C[C@H](F)C5)nc13)N1CCCC[C@H](C1)c1cnn(n1)CCCc1c(Cl)cc3[nH]ncc3c1-2 (single isomer, unassigned) [Example 296]	
		Fc1c2ncc3c(nc(OC[C@@]45CCCN4C[C@H](F)C5)nc13)N1CCC[C@H](C1)Cn1ncc(n1)[C@@H]1C[C@@H]1c1c(Cl)cc3[nH]ncc3c1-2 (relative stereo) [Example 383, (11R,13S,19R)-rel-9-chloro-32-fluoro-26-(((2.R.7aS)-2-fluorotetrahydro-1H-pyrrolo[1,2-α]pyrrol-7a(5H)-yl)methoxy)-5,6,16,17,23,25,27,31,34-nonaazaoctacyclo[26.3.1.1~14,17~1~19,23~.0~2,10~0~3,7~.0~11,13~.0~24,29~]tetratriaconta-1(32),2.4,7,9,14(34),15,24,26,28,30-undecaene]	IC50 [3, 7]: 13 nM
	1590 nM	[2H]C([2H])([2H])[C@]12COCCN(C1)c1nc(OC[C@@]34CCCN3C[C@H](F)C4)nc3c(F)c(ncc13)-c1c(c(Cl)cc3[nH]ncc13)CCCOC(=O)O2 (single isomer, unassigned) [Example 354]	

Compound	IC50 [2, 5]	IC50 ([3]; TR-FRET binding)	also measured
Cc1cc2[nH]ncc2c2c1CCCCCCC1(O)CCCN(C1)c1nc(OC[C@@]34CCCN3C[C@H](F)C4)nc3c(F)c-2ncc13 (mixture of isomers) [Example 44]	266 nM	160 nM	
